In this experiment the test system is strain NA45-3 (ATCC 209681). Nature of the experiment: Effect of magnesium on AA production from substrates by strain NA45-3. The class given is cell-based, Prototheca moriformis. As to conditions: 24 hours; for conversion to AA, effect of magnesium in the resuspension buffer: NA45-3 grown Mg-limited, substrate 20 g/L.

Turning to `O=C[C@@H](O)[C@@H](O)[C@H](O)[C@H](O)CO` [D-mannose], the “conversion to AA, effect of magnesium in the resuspension buffer” value is “unaffected”.
With `O=C1O[C@H]([C@@H](O)CO)[C@@H](O)[C@@H]1O` [L-galactono-γ-lactone], the “conversion to AA, effect of magnesium in the resuspension buffer” value is “unaffected”. Moreover, for the setting “NA45-3, substrate 20 g/L, regardless of magnesium in resuspension broth”, the “AA accumulation by cells grown under magnesium-sufficient conditions” value is listed as “enhanced”.

The values are drawn from patent publication US20020012979A1, “VITAMIN C PRODUCTION IN MICROORGANISMS AND PLANTS” (priority 1998, published 2002).
